According to US11143585B2, “Photoelectrical device for concentration detection, method for concentration detection thereof and method for testing an antibiotic susceptibility on bacteria” (priority 2018, dated 2021):

Key:
[1] = tested on: oxacillin-resistant Staphylococcus aureus (ORSA); experiment: Antibiotic effectiveness test with the photoelectrical device, fluid sample containing ORSA and oxacillin; type: cell-based
Protocol: (§1) FIG. 3A is an electric current-voltage curve obtained by the photoelectrical device of the present invention for detecting an effectiveness of an antibiotic on bacteria. In the method for testing the effectiveness of an antibiotic on bacteria of the present invention, firstly, a fluid sample containing bacteria and an antibiotic is prepared, wherein the bacterial concentration of the fluid sample is between 10^4 and 10^5 CFU/ml. Use FIG. 3A as an example, the fluid sample to be detected contains an antibiotic: oxacillin, and bacteria: oxacillin-resistant Staphylococcus aureus (ORSA, hereinafter as ORSA for short). There is also another control sample used as a control group containing oxacillin and oxacillin-susceptible Staphylococcus aureus (OSSA, hereinafter as OSSA for short). In FIG. 3A, curve B3 is the background information and is drawn by detecting a sterile fluid sample. Curve OS31 is drawn by detecting the control sample containing OSSA and oxacillin, and curve OR31 is drawn by detecting a fluid sample containing ORSA and oxacillin.
Both the above fluid sample and the control sample are added with oxacillin of a concentration of about 4 μg/ml in the tryptic soy broth (TSB) to incubate OSSA and ORSA respectively, and both of them respectively contain OSSA and ORSA with a bacterial concentration of 6×10^4 CFU/ml. After preparing the above fluid sample and the control sample, the bacteria (ORSA) in the fluid sample and the bacteria (OSSA) in the control sample are incubated, wherein the time for incubating the bacteria can be more than 3 hours, for example, 4 hours. […]
(§2) FIG. 3B is a diagram illustrating the relationship between the change rate of electric current and the incubation time measured on the photoelectric device 100 after being incubated for different periods of time based on FIG. 3A, wherein the vertical axis represents the change rate of electric current and its definition is the same as the above mathematical formula (1), while the horizontal axis represents the incubation time (also referred to as incubation period). […]

[2] = tested on: oxacillin-susceptible Staphylococcus aureus (OSSA); experiment: Antibiotic effectiveness test with the photoelectrical device, control sample containing OSSA and oxacillin; type: cell-based; details: oxacillin about 4 μg/ml in TSB, initial 6×10^4 CFU/ml
Protocol: as §1, with “Curve OS31 is drawn by detecting the control sample containing OSSA and oxacillin, and curve OR31 is drawn by detecting a fluid sample containing ORSA and oxacillin.” left out
as §2

SMILES: Cc1onc(-c2ccccc2)c1C(=O)N[C@@H]1C(=O)N2[C@@H]1SC(C)(C)[C@@H]2C(=O)O [oxacillin]
- change rate of electric current of the ORSA fluid sample ([1]; oxacillin about 4 μg/ml in TSB, initial 6×10^4 CFU/ml, after 4 hours of incubation time, FIG. 3B curve OR32): more than 10%
- inhibition of ORSA reproduction (conclusion from change rate of electric current) ([1]; oxacillin about 4 μg/ml in TSB, initial 6×10^4 CFU/ml, increasing incubation time): not inhibited by oxacillin
- difference between the change rates of electric current of the ORSA fluid sample and the OSSA control sample ([1]; oxacillin about 4 μg/ml, after more than 3 hours of incubation period, FIG. 3B): ≥ 4%
- change in the change rate of electric current of the OSSA sample as incubation time increases ([2]; FIG. 3B curve OS32): no significant change
- inhibition of OSSA reproduction (conclusion from change rate of electric current) ([2]; increasing incubation time): inhibited by oxacillin and difficult to reproduce
